Test results: US11542259B2, “Compounds for the treatment of kinase-dependent disorders” (Exelixis, Inc., priority 2018, dated 2023)
Where a name gives a salt, the structure may show the parent alone.

Legend:
Type in all cases: cell-based
AXL = AXL (Homo sapiens (Human), UniProt P30530); assay: AXL autophosphorylation ELISA in A-172 cells; settings: cellular, Gas6 stimulated
In short: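 Serum-starved (24 h) A-172 glioblastoma cells pretreated 1 h with compounds (8-point curve, 0.3% DMSO), then stimulated 15 min with 1 μg/mL Gas6. Lysate phospho-AXL measured by sandwich ELISA against a phospho-AXL standard; IC50 from 4-parameter logistic fit between DMSO and reference-inhibitor controls.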

KDR = KDR (Homo sapiens (Human), UniProt P35968); assay: KDR autophosphorylation ELISA in HUVEC cells; settings: cellular, VEGF165 stimulated
In short: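 HUVECs grown 24 h at 37 °C, then serum-starved 24 h, were preincubated 1 h with an 8-point compound series (0.3% DMSO) and stimulated with 100 ng/mL human VEGF165 for 5 min. Phospho-KDR in lysates was measured by sandwich ELISA against a phospho-KDR standard; IC50 from 4-parameter logistic fit.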

Met = Met (Homo sapiens (Human), UniProt P08581); assay: Met autophosphorylation ELISA in PC-3 cells; settings: cellular, HGF stimulated, read-out: c-Met IC50
In short: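 Phospho-Met (panTyr) sandwich ELISA on lysates of PC-3 cells given 100 ng/mL HGF for 10 min after 1 h compound exposure (8-point curve, 0.3% DMSO) following 3 h serum starvation. Normalised to HGF-stimulated DMSO and reference-inhibitor wells; 4-parameter logistic IC50.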

Mer = Mer (Homo sapiens (Human), UniProt Q12866); assay: Mer autophosphorylation ELISA in transient transfected 293A cells; settings: cellular, MERTK transfected 293A cells
Description: 293A cells (Thermo Fisher #R70507) were seeded at 1.5×10^6 cells/well onto 100 mm dish (Greiner #664169), in DMEM (Thermo Fisher #11995-040) containing 10% FBS (Thermo Fisher #26140-079), 1% MEM NEAA (Thermo Fisher #11140-050), 1% GlutaMax (Thermo Fisher #35050-061), and 1% Penicillin Streptomycin (Thermo Fisher #15140-122). 293A cells were incubated at 37° C., 5% CO2 for 24 h and then transfected with 6 μg MERTK DNA (Genecopoeia #EX-Z8208-M02) using TransIT LT1 transfection reagent (Mirus-Bio #MIR2305). After 24 h incubation, the transfected 293A cells were seeded at 1×10^5 cells/well onto 96-well plates (Corning #3904) in DMEM growth medium overnight. Test compounds were serially diluted to produce an 8-point dose curve in fresh serum-free medium to a final concentration of 0.3% DMSO (vehicle) and added to the cells and incubated for 1 h. Cells were then immediately lysed with 150 μL of cold 1× lysis buffer [20 mM Tris, 137 mM sodium chloride, 2 mM EDTA, 10% glycerol, 1% NP-40 alternative, 1 mM activated sodium orthovanadate, 1 mM PefaBloc SC (Sigma-Aldrich #11429868001), protease/phosphatase inhibitor tablet (Thermo Fisher #A32959)]. Lysates were clarified by centrifugation and 50 μL/well added into the human phospho-Mer DuoSet IC ELISA (R&D Systems #DYC2579-2). Assay was performed according to manufacturer's instructions and sample phospho-Mer concentrations were extrapolated using human phospho-Mer control (R&D Systems #841793) as a standard. Positive control wells (100% activity) contained DMSO-treated cell lysates. Negative control wells (0% activity) contained reference inhibitor-treated cell lysates. IC50 values were calculated by nonlinear regression analysis using a 4-parameter logistic curve fit in ActivityBase XE (IDBS).

Mer, sequence (Q12866 21-999): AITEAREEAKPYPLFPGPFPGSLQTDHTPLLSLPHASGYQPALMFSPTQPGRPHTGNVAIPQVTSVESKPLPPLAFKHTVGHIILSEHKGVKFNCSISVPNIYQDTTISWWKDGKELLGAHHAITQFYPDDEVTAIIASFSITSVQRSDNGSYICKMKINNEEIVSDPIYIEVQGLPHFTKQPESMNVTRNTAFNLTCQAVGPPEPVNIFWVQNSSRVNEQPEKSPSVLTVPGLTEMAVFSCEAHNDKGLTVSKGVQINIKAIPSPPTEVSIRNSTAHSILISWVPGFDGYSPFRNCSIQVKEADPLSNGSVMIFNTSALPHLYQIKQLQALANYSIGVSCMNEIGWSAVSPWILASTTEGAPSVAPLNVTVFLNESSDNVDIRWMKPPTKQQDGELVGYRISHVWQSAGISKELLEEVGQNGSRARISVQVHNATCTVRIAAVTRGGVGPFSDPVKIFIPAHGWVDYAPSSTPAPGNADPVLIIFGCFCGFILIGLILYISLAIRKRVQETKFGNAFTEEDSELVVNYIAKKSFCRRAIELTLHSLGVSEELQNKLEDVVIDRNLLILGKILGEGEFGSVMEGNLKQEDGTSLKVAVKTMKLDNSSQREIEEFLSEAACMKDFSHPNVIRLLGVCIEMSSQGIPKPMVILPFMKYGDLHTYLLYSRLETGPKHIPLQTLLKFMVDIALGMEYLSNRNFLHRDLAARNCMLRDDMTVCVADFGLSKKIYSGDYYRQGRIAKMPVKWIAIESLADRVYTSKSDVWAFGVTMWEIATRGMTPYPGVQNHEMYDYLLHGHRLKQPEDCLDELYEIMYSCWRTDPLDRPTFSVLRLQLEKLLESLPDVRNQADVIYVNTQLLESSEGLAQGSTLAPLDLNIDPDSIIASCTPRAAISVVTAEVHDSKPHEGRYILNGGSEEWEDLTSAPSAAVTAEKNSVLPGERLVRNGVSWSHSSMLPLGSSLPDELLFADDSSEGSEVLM
KDR, sequence (P35968 20-1356): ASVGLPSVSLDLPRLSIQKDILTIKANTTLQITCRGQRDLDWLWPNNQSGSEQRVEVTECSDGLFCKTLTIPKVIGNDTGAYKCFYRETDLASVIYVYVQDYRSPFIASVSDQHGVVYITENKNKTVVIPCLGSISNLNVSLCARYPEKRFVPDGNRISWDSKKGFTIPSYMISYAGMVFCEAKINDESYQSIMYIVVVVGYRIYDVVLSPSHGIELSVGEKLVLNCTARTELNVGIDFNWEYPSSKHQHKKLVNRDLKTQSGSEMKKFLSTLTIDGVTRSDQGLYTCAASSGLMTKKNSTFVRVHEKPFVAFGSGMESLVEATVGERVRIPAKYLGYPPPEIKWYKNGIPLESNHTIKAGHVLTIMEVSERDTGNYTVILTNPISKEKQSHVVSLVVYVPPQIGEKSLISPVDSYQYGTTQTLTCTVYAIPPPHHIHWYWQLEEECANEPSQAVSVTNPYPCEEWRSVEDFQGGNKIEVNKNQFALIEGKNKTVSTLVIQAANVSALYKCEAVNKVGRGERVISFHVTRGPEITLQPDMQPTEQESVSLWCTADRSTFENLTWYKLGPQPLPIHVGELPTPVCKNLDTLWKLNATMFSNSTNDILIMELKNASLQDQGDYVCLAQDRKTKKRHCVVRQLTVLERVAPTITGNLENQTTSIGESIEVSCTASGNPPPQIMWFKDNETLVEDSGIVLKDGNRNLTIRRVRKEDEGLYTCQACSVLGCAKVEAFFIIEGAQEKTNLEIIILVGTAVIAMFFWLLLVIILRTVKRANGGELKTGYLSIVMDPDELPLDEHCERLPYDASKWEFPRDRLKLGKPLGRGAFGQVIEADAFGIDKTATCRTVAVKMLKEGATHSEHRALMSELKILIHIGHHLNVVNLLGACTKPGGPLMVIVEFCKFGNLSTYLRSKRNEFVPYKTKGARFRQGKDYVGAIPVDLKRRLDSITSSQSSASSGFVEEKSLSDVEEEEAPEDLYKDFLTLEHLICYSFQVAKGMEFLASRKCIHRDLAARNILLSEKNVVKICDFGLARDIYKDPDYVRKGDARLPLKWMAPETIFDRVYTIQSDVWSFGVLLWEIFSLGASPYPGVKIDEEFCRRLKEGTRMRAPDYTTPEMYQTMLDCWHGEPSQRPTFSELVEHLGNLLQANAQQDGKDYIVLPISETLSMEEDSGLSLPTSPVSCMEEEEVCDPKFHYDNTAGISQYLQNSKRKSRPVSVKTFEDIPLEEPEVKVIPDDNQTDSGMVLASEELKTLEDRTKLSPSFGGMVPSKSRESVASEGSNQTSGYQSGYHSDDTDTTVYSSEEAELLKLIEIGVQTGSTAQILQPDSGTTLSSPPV
AXL, sequence (P30530 26-894): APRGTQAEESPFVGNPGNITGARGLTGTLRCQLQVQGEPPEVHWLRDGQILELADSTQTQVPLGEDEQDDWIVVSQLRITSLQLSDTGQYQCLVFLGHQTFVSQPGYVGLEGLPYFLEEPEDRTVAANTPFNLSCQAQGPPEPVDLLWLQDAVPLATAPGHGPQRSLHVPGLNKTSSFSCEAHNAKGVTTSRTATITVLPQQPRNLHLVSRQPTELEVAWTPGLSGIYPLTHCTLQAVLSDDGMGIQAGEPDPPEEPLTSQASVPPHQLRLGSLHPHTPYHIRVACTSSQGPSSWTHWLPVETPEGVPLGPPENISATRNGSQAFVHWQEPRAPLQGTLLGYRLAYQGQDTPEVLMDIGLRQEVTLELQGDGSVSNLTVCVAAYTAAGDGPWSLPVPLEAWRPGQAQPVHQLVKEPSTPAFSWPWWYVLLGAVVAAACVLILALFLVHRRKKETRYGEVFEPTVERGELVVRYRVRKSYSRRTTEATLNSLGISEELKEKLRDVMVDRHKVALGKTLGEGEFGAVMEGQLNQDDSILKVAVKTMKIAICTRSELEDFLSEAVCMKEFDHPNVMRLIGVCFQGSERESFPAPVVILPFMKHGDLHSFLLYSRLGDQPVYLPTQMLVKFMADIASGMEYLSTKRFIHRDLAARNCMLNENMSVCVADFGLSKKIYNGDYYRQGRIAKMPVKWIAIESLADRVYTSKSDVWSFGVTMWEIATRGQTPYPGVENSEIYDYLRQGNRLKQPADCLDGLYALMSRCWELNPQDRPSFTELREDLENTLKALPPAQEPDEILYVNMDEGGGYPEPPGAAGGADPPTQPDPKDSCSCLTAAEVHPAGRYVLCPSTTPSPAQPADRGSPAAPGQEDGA
Met, sequence (P08581 25-1390): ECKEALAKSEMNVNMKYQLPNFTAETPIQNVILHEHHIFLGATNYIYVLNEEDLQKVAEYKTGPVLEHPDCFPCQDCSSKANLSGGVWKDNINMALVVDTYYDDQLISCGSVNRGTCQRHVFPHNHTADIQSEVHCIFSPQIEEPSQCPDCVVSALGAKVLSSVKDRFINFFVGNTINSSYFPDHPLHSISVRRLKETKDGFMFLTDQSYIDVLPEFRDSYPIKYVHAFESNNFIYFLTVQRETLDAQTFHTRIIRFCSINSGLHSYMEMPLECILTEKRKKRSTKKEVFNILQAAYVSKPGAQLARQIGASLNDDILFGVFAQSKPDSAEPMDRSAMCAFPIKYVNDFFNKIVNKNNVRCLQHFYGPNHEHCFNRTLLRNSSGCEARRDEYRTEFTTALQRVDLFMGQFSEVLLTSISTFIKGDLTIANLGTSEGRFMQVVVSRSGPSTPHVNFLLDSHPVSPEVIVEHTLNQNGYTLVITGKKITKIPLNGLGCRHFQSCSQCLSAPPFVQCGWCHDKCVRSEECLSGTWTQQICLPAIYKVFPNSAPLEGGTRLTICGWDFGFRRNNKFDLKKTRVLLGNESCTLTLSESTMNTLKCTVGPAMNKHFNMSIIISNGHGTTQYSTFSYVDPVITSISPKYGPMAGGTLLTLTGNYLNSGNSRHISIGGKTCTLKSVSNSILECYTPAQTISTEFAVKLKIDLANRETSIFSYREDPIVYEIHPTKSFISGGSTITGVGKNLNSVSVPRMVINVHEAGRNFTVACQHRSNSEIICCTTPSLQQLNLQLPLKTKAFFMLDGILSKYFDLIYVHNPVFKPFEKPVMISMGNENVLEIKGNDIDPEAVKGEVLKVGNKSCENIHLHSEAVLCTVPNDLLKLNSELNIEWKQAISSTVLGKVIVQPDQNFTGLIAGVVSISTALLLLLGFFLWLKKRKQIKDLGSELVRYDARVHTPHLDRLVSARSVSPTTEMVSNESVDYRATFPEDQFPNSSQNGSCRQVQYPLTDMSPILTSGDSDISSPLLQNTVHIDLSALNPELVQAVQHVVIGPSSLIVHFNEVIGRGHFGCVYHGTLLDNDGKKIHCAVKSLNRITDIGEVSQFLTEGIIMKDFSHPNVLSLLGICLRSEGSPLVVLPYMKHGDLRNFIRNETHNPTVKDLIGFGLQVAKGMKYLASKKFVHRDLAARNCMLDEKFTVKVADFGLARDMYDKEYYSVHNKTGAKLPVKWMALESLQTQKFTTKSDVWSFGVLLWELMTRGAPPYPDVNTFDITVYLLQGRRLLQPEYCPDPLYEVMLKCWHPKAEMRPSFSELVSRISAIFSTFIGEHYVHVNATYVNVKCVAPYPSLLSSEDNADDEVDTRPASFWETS

SMILES	IC50 (AXL) [nM]	IC50 (KDR) [nM]	IC50 (Met) [nM]	IC50 (Mer) [nM]
CNC(=O)Nc1cc2c(Oc3ccc(NC(=O)C4(C(=O)Nc5ccc(F)cc5)CC4)cc3)ccnc2cc1OC [Compound 279, 1-N′-(4-Fluorophenyl)-1-N-[4-[7-methoxy-6-(methylcarbamoylamino)-quinolin-4-yl]oxyphenyl]cyclopropane-1,1-dicarboxamide]	≤ 10	≤ 10	10 to 100	≤ 10
COC(=O)Nc1cc2c(Oc3ccc(NC(=O)C4(C(=O)Nc5ccc(F)cc5)CC4)cc3)ccnc2cc1OC [Compound 280, Methyl N-[4-[4-[[1-[(4-fluorophenyl)carbamoyl]cyclopropane-carbonyl]amino]phenoxy]-7-methoxyquinolin-6-yl]carbamate]	≤ 10	≤ 10	10 to 100	≤ 10
CCc1noc(-c2cc3c(Oc4ccc(NC(=O)C5(C(=O)Nc6ccc(F)cc6)CC5)cc4)ccnc3cc2OC)n1 [Compound 283, 1-N-[4-[6-(3-Ethyl-1,2,4-oxadiazol-5-yl)-7-methoxyquinolin-4-yl]oxyphenyl]-1-N′-(4-fluorophenyl)cyclopropane-1,1-dicarboxamide Hydrochloride]	10 to 100	10 to 100	10 to 100	10 to 100
CNC(=O)c1cc2nccc(Oc3ccc(NC(=O)C4(C(=O)Nc5ccc(F)cc5)CC4)cc3F)c2cc1C [Compound 289, 1-N′-[3-Fluoro-4-[6-methyl-7-(methylcarbamoyl)quinolin-4-yl]oxyphenyl]-1-N-(4-fluorophenyl)cyclopropane-1,1-dicarboxamide]	10 to 100	10 to 100	10 to 100	10 to 100
CNC(=O)c1cc2nccc(Oc3cc(F)c(NC(=O)C4(C(=O)Nc5ccc(F)cc5)CC4)cc3F)c2cc1C [Compound 290, 1-N′-[2,5-Difluoro-4-[6-methyl-7-(methylcarbamoyl)quinolin-4-yl]oxyphenyl]-1-N-(4-fluorophenyl)cyclopropane-1,1-dicarboxamide]	≤ 10	100 to 300	≤ 10	≤ 10
CNC(=O)c1cc2nccc(Oc3cc(Cl)c(NC(=O)C4(C(=O)Nc5ccc(F)cc5)CC4)cc3F)c2cc1C [Compound 291, 1-N′-[2-Chloro-5-fluoro-4-[6-methyl-7-(methylcarbamoyl)quinolin-4-yl]oxyphenyl]-1-N-(4-fluorophenyl)cyclopropane-1,1-dicarboxamide]	10 to 100	> 300	10 to 100	10 to 100

Second part, the molecule after the results:

IC50 (AXL) [nM]	IC50 (KDR) [nM]	IC50 (Met) [nM]	IC50 (Mer) [nM]	SMILES
10 to 100	> 300	10 to 100	10 to 100	CNC(=O)c1cc2nccc(Oc3c(F)cc(NC(=O)C4(C(=O)Nc5ccc(F)cc5)CC4)c(F)c3F)c2cc1C [Compound 292, 1-N-(4-Fluorophenyl)-1-N′-[2,3,5-trifluoro-4-[6-methyl-7-(methylcarbamoyl)quinolin-4-yl]oxyphenyl]cyclopropane-1,1-dicarboxamide]
10 to 100	10 to 100	10 to 100	10 to 100	Cc1cc2c(Oc3ccc(NC(=O)C4(C(=O)Nc5ccc(F)cc5)CC4)cc3F)ccnc2cc1C(N)=O [Compound 293, 1-N′-[4-(7-Carbamoyl-6-methylquinolin-4-yl)oxy-3-fluorophenyl]-1-N-(4-fluorophenyl)cyclopropane-1,1-dicarboxamide]
≤ 10	10 to 100	≤ 10	≤ 10	Cc1cc2c(Oc3cc(F)c(NC(=O)C4(C(=O)Nc5ccc(F)cc5)CC4)cc3F)ccnc2cc1C(N)=O [Compound 294, 1-N′-[4-(7-Carbamoyl-6-methylquinolin-4-yl)oxy-2,5-difluorophenyl]-1-N-(4-fluorophenyl)cyclopropane-1,1-dicarboxamide]
10 to 100	10 to 100	10 to 100	10 to 100	O=C(NOCCO)c1ccc2c(Oc3ccc(NC(=O)C4(C(=O)Nc5ccc(F)cc5)CC4)cc3F)ccnc2c1 [Compound 301, 1-N′-[3-Fluoro-4-[7-(2-hydroxyethoxycarbamoyl)quinolin-4-yl]oxyphenyl]-1-N-(4-fluorophenyl)cyclopropane-1,1-dicarboxamide]
10 to 100	100 to 300	≤ 10	100 to 300	O=C(NOCCO)c1ccc2c(Oc3cc(F)c(NC(=O)C4(C(=O)Nc5ccc(F)cc5)CC4)cc3F)ccnc2c1 [Compound 302, 1-N′-[2,5-Difluoro-4-[7-(2-hydroxyethoxycarbamoyl)quinolin-4-yl]oxyphenyl]-1-N-(4-fluorophenyl)cyclopropane-1,1-dicarboxamide]
